{"source": "patent US20200131180A1", "about": "“POSITIVE ALLOSTERIC MODULATORS OF THE MUSCARINIC ACETYLCHOLINE RECEPTOR M1” (Vanderbilt University, priority 2018, published 2020)", "biological_target": "T1, human mAChR M1 (Homo sapiens, UniProt P11229)", "T1 sequence (P11229 1-460)": "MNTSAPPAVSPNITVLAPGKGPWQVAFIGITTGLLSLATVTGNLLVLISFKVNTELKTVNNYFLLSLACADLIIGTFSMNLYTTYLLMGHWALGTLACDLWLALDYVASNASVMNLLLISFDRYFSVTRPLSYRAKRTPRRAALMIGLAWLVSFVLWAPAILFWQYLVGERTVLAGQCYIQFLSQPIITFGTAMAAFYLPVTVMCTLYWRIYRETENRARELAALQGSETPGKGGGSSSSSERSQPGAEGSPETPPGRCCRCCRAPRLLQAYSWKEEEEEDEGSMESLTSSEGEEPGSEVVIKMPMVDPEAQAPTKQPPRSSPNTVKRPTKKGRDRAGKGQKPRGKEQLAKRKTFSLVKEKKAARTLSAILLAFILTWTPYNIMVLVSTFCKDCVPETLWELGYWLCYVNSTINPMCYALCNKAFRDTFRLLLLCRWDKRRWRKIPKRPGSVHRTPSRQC", "test": "mAChR M1 cell-based functional assay (calcium mobilization, PAM activity)", "conditions": "CHO-K1 cells expressing hM1, calcium flux (Fluo-4); for EC50: concentration-dependent increase in the EC20 acetylcholine response; for Emax: potentiation of EC20 acetylcholine response", "text": "Chinese hamster ovary (CHO-K1) cells stably expressing rat (r)M1 were purchased from the American Type Culture Collection and cultured according to their indicated protocol. CHO cells stably expressing human (h)M2, hM3, and hM5 were described previously (Levey, et al., 1991); hM1 and hM4 cDNAs were purchased from Missouri S&T cDNA Resource; rM4 cDNA was provided by T. I. Bonner (National Institutes of Health, Bethesda, Md.). rM2 and rM3 were cloned from a rat brain cDNA library and sequence verified. hM1, rM2, rM3, hM4, and rM4 cDNAs were used to stably transfect CHO-K1 cells purchased from the American Type Culture Collection using Lipofectamine 2000. To make stable rM2, hM2, rM3, hM4, and rM4 cell lines for use in calcium mobilization assays, these cells also were stably transfected with a chimeric G-protein (Gqi5) (provided by B. R. Conklin, University of California, San Francisco) using Lipofectamine 2000. rM1, hM1, rM3, hM3, rM5, and hM5 cells were grown in Ham's F-12 medium containing 10% heat-inactivated fetal bovine serum (FBS), 20 mM HEPES, and 50 μg/mL G418 sulfate. rM2-Gqi5, hM2-Gqi5, and hM4-Gqi5 cells were grown in the same medium also containing 500 μg/mL Hygromycin B. Stable rM4-Gqi5 cells were grown in DMEM containing 10% heat-inactivated FBS, 20 mM HEPES, 400 μg/mL G418 sulfate, and 500 μg/mL Hygromycin B.\nFor high throughput measurement of agonist-evoked increases in intracellular calcium, CHO-K1 cells stably expressing muscarinic receptors were plated in growth medium lacking G418 and hygromycin at 15,000 cells/20 μL/well in Greiner 384-well black-walled, tissue culture (TC)-treated, clear-bottom plates (VWR). Cells were incubated overnight at 37° C. and 5% CO2. The next day, cells were washed using an ELX 405 (BioTek) with four washes (80 μL) of assay buffer then aspirated to 20 μL. Next, 20 μL of 16 μM Fluo-4/acetoxymethyl ester (Invitrogen, Carlsbad, Calif.) prepared as a 2.3 mM stock in DMSO and mixed in a 1:1 ratio with 10% (w/v) Pluronic F-127 and diluted in assay buffer was added to the wells and the cell plates were incubated for 50 min at 37° C. and 5% CO2. Dye was removed by washing with the ELX 405 (four 80 μL washes of assay buffer) then aspirated to 20 μL. Compound master plates were formatted in an 11 point CRC format (1:3 dilutions) in 100% DMSO with a starting concentration of 10 mM using the BRAVO liquid handler (Agilent). Test compound CRCs were then transferred to daughter plates (240 nL) using the Echo acoustic plate reformatter (Labcyte, Sunnyvale, Calif.) and then diluted into assay buffer (40 μL) to a 2× stock using a Thermo Fisher Combi (Thermo Fisher Scientific, Waltham, Mass.).\nCalcium flux was measured using the Functional Drug Screening System (FDSS) 6000 (Hamamatsu Corporation, Tokyo, Japan) as an increase in the fluorescent static ratio. Compounds were applied to cells (20 μL, 2×) using the automated system of the FDSS 6000 at 4 s into the 300 s protocol and the data were collected at 1 Hz. At 144 s into the 300s protocol, 10 μL of an EC20 concentration of the muscarinic receptor agonist acetylcholine was added (5×), followed by the addition of 12 μL an EC80 concentration of acetylcholine at the 230 s time point (5×). Agonist activity was analyzed as a concentration-dependent increase in calcium mobilization upon compound addition. Emax values for agonist activity are expressed relative to the maximum for acetylcholine. Positive allosteric modulator activity was analyzed as a concentration-dependent increase in the EC20 acetylcholine response. Antagonist activity was analyzed as a concentration-dependent decrease in the EC80 acetylcholine response. Concentration-response curves were generated using a four-parameter logistical equation in XLfit curve fitting software (IDBS, Bridgewater, N.J.) for Excel (Microsoft, Redmond, Wash.) or Prism (GraphPad Software, Inc., San Diego, Calif.). […]", "data": [{"smiles": "Cc1nc(-c2ccc(Cc3cc(C(=O)N[C@H]4CCCC[C@@H]4O)c4ncnn4c3)cc2)co1", "note": "[compound 32, N-[(1S,2S)-2-hydroxycyclohexyl]-6-[[4-(2-methyloxazol-4-yl)phenyl]methyl]-[1,2,4]triazolo[1,5-a]pyridine-8-carboxamide]", "values": [{"measurement": "EC50", "result": 1430, "unit": "nM"}, {"measurement": "Emax", "result": 87, "unit": "%"}]}, {"smiles": "Cn1ccc(-c2ccc(Cc3cc(C(=O)N[C@H]4CCCC[C@@H]4O)c4nccn4c3)c(F)c2)n1", "note": "[compound 52, 6-[[2-fluoro-4-(1-methylpyrazol-3-yl)phenyl]methyl]-N-[(1S,2S)-2-hydroxycyclohexyl]imidazo[1,2-a]pyridine-8-carboxamide]", "values": [{"measurement": "EC50", "result": 414, "unit": "nM"}, {"measurement": "Emax", "result": 70, "unit": "%"}]}, {"smiles": "Cn1ccc(-c2ccc(Cc3cc(C(=O)N[C@H]4CCOC[C@@H]4O)c4nccn4c3)cn2)n1", "note": "[compound 26, N-[(3R,4S)-3-hydroxytetrahydropyran-4-yl]-6-[[6-(1-methylpyrazol-3-yl)-3-pyridyl]methyl]imidazo[1,2-a]pyridine-8-carboxamide]", "values": [{"measurement": "EC50", "result": 4350, "unit": "nM"}, {"measurement": "Emax", "result": 79, "unit": "%"}]}, {"smiles": "Cn1cc(-c2ccc(Cc3cc(C(=O)NC4CC5(COC5)C4)c4ncnn4c3)cn2)cn1", "note": "[compound 15, 6-[[6-(1-methylpyrazol-4-yl)-3-pyridyl]methyl]-N-(2-oxaspiro[3.3]heptan-6-yl)-[1,2,4]triazolo[1,5-a]pyridine-8-carboxamide]", "values": [{"measurement": "Emax", "result": 65, "unit": "%"}]}, {"smiles": "Cn1ccc(-c2ccc(Cc3cc(C(=O)N[C@@H]4CCOC[C@H]4O)c4nccn4c3)cc2)n1", "note": "[compound 5, N-[(3S,4R)-3-hydroxytetrahydropyran-4-yl]-6-[[4-(1-methylpyrazol-3-yl)phenyl]methyl]imidazo[1,2-a]pyridine-8-carboxamide]", "values": [{"measurement": "EC50", "result": 384, "unit": "nM"}, {"measurement": "Emax", "result": 78, "unit": "%"}]}, {"smiles": "Cn1cc(-c2ccc(Cc3cc(C(=O)N[C@H]4CCCC[C@@H]4O)c4nccn4c3)cc2)cn1", "note": "[compound 62, N-[(1S,2S)-2-hydroxycyclohexyl]-6-[[4-(1-methylpyrazol-4-yl)phenyl]methyl]imidazo[1,2-a]pyridine-8-carboxamide]", "values": [{"measurement": "EC50", "result": 699, "unit": "nM"}, {"measurement": "Emax", "result": 89, "unit": "%"}]}, {"smiles": "Cn1cc(-c2ccc(Cc3cc(C(=O)N[C@H]4CCCC[C@@H]4O)c4ncnn4c3)c(F)c2)cn1", "note": "[compound 48, 6-[[2-fluoro-4-(1-methylpyrazol-4-yl)phenyl]methyl]-N-[(1S,2S)-2-hydroxycyclohexyl]-[1,2,4]triazolo[1,5-a]pyridine-8-carboxamide]", "values": [{"measurement": "EC50", "result": 229, "unit": "nM"}, {"measurement": "Emax", "result": 76, "unit": "%"}]}, {"smiles": "O=C(N[C@H]1CCCC[C@@H]1O)c1cc(Cc2ccc(C(F)(F)F)nc2)cn2ccnc12", "note": "[compound 64, N-[(1S,2S)-2-hydroxycyclohexyl]-6-[[6-(trifluoromethyl)-3-pyridyl]methyl]imidazo[1,2-a]pyridine-8-carboxamide]", "values": [{"measurement": "Emax", "result": 46, "unit": "%"}]}, {"smiles": "Cn1ccc(-c2ccc(Cc3cc(C(=O)N[C@@H]4CCCC[C@H]4O)c4nccn4c3)cc2)n1", "note": "[compound 2, N-[(1R,2R)-2-hydroxycyclohexyl]-6-[[4-(1-methylpyrazol-3-yl)phenyl]methyl]imidazo[1,2-a]pyridine-8-carboxamide]", "values": [{"measurement": "EC50", "result": 313, "unit": "nM"}, {"measurement": "Emax", "result": 77, "unit": "%"}]}, {"smiles": "O=C(N[C@H]1CCC[C@@H]1O)c1cc(Cc2ccc(-n3cccn3)cc2)cn2ccnc12", "note": "[compound 24, N-[(1S,2S)-2-hydroxycyclopentyl]-6-[(4-pyrazol-1-ylphenyl)methyl]imidazo[1,2-a]pyridine-8-carboxamide]", "values": [{"measurement": "EC50", "result": 2140, "unit": "nM"}, {"measurement": "Emax", "result": 76, "unit": "%"}]}, {"smiles": "O=C(N[C@H]1CCOC[C@@H]1O)c1cc(Cc2ccc(-n3cccn3)nc2)cn2ccnc12", "note": "[compound 63, N-[(3R,4S)-3-hydroxytetrahydropyran-4-yl]-6-[(6-pyrazol-1-yl-3-pyridyl)methyl]imidazo[1,2-a]pyridine-8-carboxamide]", "values": [{"measurement": "EC50", "result": 4820, "unit": "nM"}, {"measurement": "Emax", "result": 67, "unit": "%"}]}, {"smiles": "Cn1cc(-c2ccc(Cc3cc(C(=O)N[C@H]4CCOC[C@@H]4O)c4nccn4c3)c(F)c2)cn1", "note": "[compound 55, 6-[[2-fluoro-4-(1-methylpyrazol-4-yl)phenyl]methyl]-N-[(3R,4S)-3-hydroxytetrahydropyran-4-yl]imidazo[1,2-a]pyridine-8-carboxamide]", "values": [{"measurement": "EC50", "result": 123, "unit": "nM"}, {"measurement": "Emax", "result": 65, "unit": "%"}]}, {"smiles": "Cn1ccc(-c2ccc(Cc3cc(C(=O)NC4CCOCC4)c4ncnn4c3)cc2)n1", "note": "[compound 8, 6-[[4-(1-methylpyrazol-3-yl)phenyl]methyl]-N-tetrahydropyran-4-yl-[1,2,4]triazolo[1,5-a]pyridine-8-carboxamide]", "values": [{"measurement": "Emax", "result": 53, "unit": "%"}]}, {"smiles": "Cc1cn2cc(Cc3ccc(-c4ccn(C)n4)cc3)cc(C(=O)N[C@H]3CCOC[C@@H]3O)c2n1", "note": "[compound 21, N-[(3R,4S)-3-hydroxytetrahydropyran-4-yl]-2-methyl-6-[[4-(1-methylpyrazol-3-yl)phenyl]methyl]imidazo[1,2-a]pyridine-8-carboxamide]", "values": [{"measurement": "EC50", "result": 2240, "unit": "nM"}, {"measurement": "Emax", "result": 43, "unit": "%"}]}, {"smiles": "Cn1cc(-c2cc(F)c(Cc3cc(C(=O)N[C@H]4CCOC[C@@H]4O)c4nccn4c3)c(F)c2)cn1", "note": "[compound 49, 6-[[2,6-difluoro-4-(1-methylpyrazol-4-yl)phenyl]methyl]-N-[(3R,4S)-3-hydroxytetrahydropyran-4-yl]imidazo[1,2-a]pyridine-8-carboxamide]", "values": [{"measurement": "EC50", "result": 474, "unit": "nM"}, {"measurement": "Emax", "result": 67, "unit": "%"}]}, {"smiles": "Cn1cc(-c2ccc(Cc3cc(C(=O)N[C@@H]4CC[C@H]4O)c4ncnn4c3)cn2)cn1", "note": "[compound 16, N-[(1R,2R)-2-hydroxycyclobutyl]-6-[[6-(1-methylpyrazol-4-yl)-3-pyridyl]methyl]-[1,2,4]triazolo[1,5-a]pyridine-8-carboxamide]", "values": [{"measurement": "Emax", "result": 67, "unit": "%"}]}, {"smiles": "Cn1cc(-c2ccc(Cc3cc(C(=O)N[C@H]4CCOC[C@@H]4O)c4nccn4c3)cc2)cn1", "note": "[compound 65, N-[(3R,4S)-3-hydroxytetrahydropyran-4-yl]-6-[[4-(1-methylpyrazol-4-yl)phenyl]methyl]imidazo[1,2-a]pyridine-8-carboxamide]", "values": [{"measurement": "EC50", "result": 1360, "unit": "nM"}, {"measurement": "Emax", "result": 90, "unit": "%"}]}, {"smiles": "Cn1ccc(-c2ccc(Cc3cc(C(=O)NC4CCOCC4)c4nccn4c3)cc2)n1", "note": "[compound 1, 6-[[4-(1-methylpyrazol-3-yl)phenyl]methyl]-N-tetrahydropyran-4-yl-imidazo[1,2-a]pyridine-8-carboxamide]", "values": [{"measurement": "EC50", "result": 6340, "unit": "nM"}, {"measurement": "Emax", "result": 68, "unit": "%"}]}, {"smiles": "Cc1nc(-c2ccc(Cc3cc(C(=O)N[C@H]4CCOC[C@@H]4O)c4ncnn4c3)cc2)co1", "note": "[compound 29, N-[(3R,4S)-3-hydroxytetrahydropyran-4-yl]-6-[[4-(2-methyloxazol-4-yl)phenyl]methyl]-[1,2,4]triazolo[1,5-a]pyridine-8-carboxamide]", "values": [{"measurement": "EC50", "result": 2550, "unit": "nM"}, {"measurement": "Emax", "result": 82, "unit": "%"}]}, {"smiles": "O=C(N[C@H]1CCCCC[C@@H]1O)c1cc(Cc2ccc(-n3cccn3)nc2)cn2ccnc12", "note": "[compound 61, N-[(1S,2S)-2-hydroxycycloheptyl]-6-[(6-pyrazol-1-yl-3-pyridyl)methyl]imidazo[1,2-a]pyridine-8-carboxamide]", "values": [{"measurement": "EC50", "result": 2540, "unit": "nM"}, {"measurement": "Emax", "result": 52, "unit": "%"}]}]}
